The values below come from ChEMBL document CHEMBL3046479, “Preparation and antimicrobial activity evaluation of some new bi- and triheterocyclic azoles” (2013).

What all share (type): functional
Experiment [1] concerns Candida albicans. The experiment is described as follows: Antimicrobial activity against Candida albicans ATCC 60193 assessed as growth inhibition after 18-24 hr by broth double microdilution method. A general note: Broth dilution looks for growth in wells or tubes with falling amounts of substance.
For experiment [2], the system named is Bacillus cereus. The experiment is described as follows: Antimicrobial activity against Bacillus cereus 709 Roma assessed as growth inhibition after 18-24 hr by broth double microdilution method.
The test system of experiment [3] is Enterococcus faecalis. As to the kind of experiment: Antimicrobial activity against Enterococcus faecalis ATCC 29212 assessed as growth inhibition after 18-24 hr by broth double microdilution method.
The test system of experiment [4] is Staphylococcus aureus. As to the kind of experiment: Antimicrobial activity against Staphylococcus aureus ATCC 25923 assessed as growth inhibition after 18-24 hr by broth double microdilution method.
Experiment [5] has as its system Listeria monocytogenes. The experiment is described as follows: Antimicrobial activity against Listeria monocytogenes ATCC 43251 assessed as growth inhibition after 18-24 hr by broth double microdilution method.
For experiment [6], the system named is Yersinia pseudotuberculosis. The experiment is described as follows: Antimicrobial activity against Yersinia pseudotuberculosis ATCC 911 assessed as growth inhibition after 18-24 hr by broth double microdilution method.
For experiment [7], the system named is Pseudomonas aeruginosa. The experiment is described as follows: Antimicrobial activity against Pseudomonas aeruginosa ATCC 10145 assessed as growth inhibition after 18-24 hr by broth double microdilution method.
In experiment [8] the test system is Escherichia coli. As to the kind of experiment: Antimicrobial activity against Escherichia coli ATCC 35218 assessed as growth inhibition after 18-24 hr by broth double microdilution method.
Experiment [9] relates to Mycolicibacterium smegmatis. The experiment is described as follows: Antimicrobial activity against Mycobacterium smegmatis ATCC 607 assessed as growth inhibition after 48-72 hr by broth double microdilution method.
Experiment [10] deals with Saccharomyces cerevisiae. As to the kind of experiment: Antimicrobial activity against Saccharomyces cerevisiae RSKK 251 assessed as growth inhibition after 18-24 hr by broth double microdilution method.

Values after ≈ are worked out from the molar mass of the structure shown. Active and inactive are the calls of the source. The calls are words filed in the database; no cut-off is given here.

For `Cc1nn(-c2ccc(N)cc2F)c(=O)[nH]1`, the MIC (in general, the lowest concentration found to suppress growth) in experiment [1] turned out to be 125 µg/mL (≈ 600 µM); in [9], 31.3 µg/mL (≈ 150 µM); in [10], 500 µg/mL (≈ 2400 µM). Besides, the MIC entry in [2], in experiment [3], in [4], in experiment [5], in experiment [6] and in experiment [7] was “inactive” each time. Besides, the MIC entry in [8] is “inactive”.
On to `Cc1nn(CC(=O)N/N=c2\sc(-c3ccc(Cl)cc3)cn2-c2ccccc2)c(=O)n1/N=C/c1ccncc1`, for which the MIC in experiment [1] came to 125 µg/mL (≈ 229 µM); in experiment [2], 125 µg/mL (≈ 229 µM); in [4], 125 µg/mL (≈ 229 µM); in experiment [10], 250 µg/mL (≈ 459 µM). In addition, the MIC entry in experiment [3], in experiment [5], in [6], in experiment [7], in [8] and in experiment [9] was “inactive” throughout.
With `Cc1nn(CC(=O)NNC(=S)Nc2ccccc2)c(=O)n1CCCn1ccnc1`, the minimum inhibitory concentration (MIC) stood at 250 µg/mL (≈ 603 µM) in [1], 31.3 µg/mL (≈ 75.5 µM) in experiment [9] and 62.5 µg/mL (≈ 151 µM) in experiment [10]. Moreover, the MIC entry in [2], in experiment [3], in experiment [4], in experiment [5], in experiment [6] and in experiment [7] was “inactive” each time. Moreover, the MIC result in [8] is “inactive”.
With `Cc1nn(CC(=O)NN)c(=O)n1CCCn1ccnc1`, the MIC entry in [1], in experiment [2], in experiment [3], in experiment [4], in experiment [5] and in [7] was “inactive” throughout. For the same compound, in [10], the MIC result is “inactive”. Further, the MIC in experiment [6], in [8] and in experiment [9] was 125 µg/mL (≈ 448 µM) each time.
Take `Cc1nn(CNC2C(=O)N3C2SC(C)(C)C3C(=O)O)c(=O)n1CCCn1ccnc1` (stereo not given): the MIC entry in experiment [1], in experiment [3], in experiment [5], in experiment [8] and in experiment [10] was “inactive” in each case. In addition, the MIC was 125 µg/mL (≈ 287 µM) in [2]; 62.5 µg/mL (≈ 144 µM) in [4]; 125 µg/mL (≈ 287 µM) in [6]; 125 µg/mL (≈ 287 µM) in experiment [7]; 31.3 µg/mL (≈ 71.9 µM) in experiment [9].
Regarding `Cc1nn(-c2ccc(/N=C3\SCC(=O)N3Cc3ccccc3)cc2F)c(=O)n1CCCn1ccnc1`, the results for the MIC in experiment [1], in experiment [9] and in experiment [10] were 500 µg/mL (≈ 989 µM), 125 µg/mL (≈ 247 µM) and 500 µg/mL (≈ 989 µM), respectively. In addition, the MIC entry in experiment [2], in [3], in experiment [4], in experiment [5], in experiment [6] and in experiment [7] was “inactive” throughout. For the same compound, the MIC result in [8] is “inactive”.
For `Cc1nn(CN2CCCCC2)c(=O)n1CCCn1ccnc1`, the minimum inhibitory concentration (MIC) in experiment [1] was 15.6 µg/mL (≈ 51.2 µM); in [2], under 0.12 µg/mL; in [3], under 0.12 µg/mL; in experiment [4] it was under 0.12 µg/mL; in experiment [5] it was under 0.12 µg/mL; in [6], under 0.12 µg/mL. For the same compound, the minimum inhibitory concentration (MIC) in experiment [7] was under 0.12 µg/mL; in experiment [8], under 0.12 µg/mL; in experiment [9], 3.9 µg/mL (≈ 12.8 µM); in experiment [10], 3.9 µg/mL (≈ 12.8 µM).
`Cc1nn(CC(=O)NN)c(=O)n1/N=C/c1ccncc1`: the values for the minimal inhibitory concentration (MIC) in experiment [1] and in experiment [9] were 500 µg/mL (≈ 1820 µM) and 250 µg/mL (≈ 908 µM), respectively. The MIC entry in [2], in [3], in experiment [4], in experiment [5], in experiment [6] and in [7] was “inactive” each time. The MIC entry in [8] and in [10] was “inactive” in each case.
